Earlier results on one substance are cited in patent US7255813B2, “NADH/NADPH-containing compound” (Nutropia Ernahrungsmedizinische Forschungs GmbH, priority 2002, dated 2007).

For this series the following is noted: versus synthetic tocopherols.

On to tocotrienol, for which the “antioxidative potential, times higher than that of synthetic tocopherols” value is given as 50 to 1000 times.
